The values that follow come from BindingDB's records for doi:10.1021/acs.jmedchem.0c00689 (Virginia Commonwealth University, 2020).

Assay [1] in a line: Inhibition of recombinant human full-length His6-tagged NTMT1 (1 to 222 residues) expressed in Escherichia coli BL21-CodonPlus(DE3)-RIL competent cells assessed as Me2RCC1 level at 2 uM pre-incubated for 10 mins before RCC1 substrate addition and measured after 15 mins by Western blot analysis relative to control.
Assay [2] in a line: Inhibition of recombinant human full-length His6-tagged NTMT1 (1 to 222 residues) expressed in Escherichia coli BL21-CodonPlus(DE3)-RIL competent cells assessed as Me2RCC1 level at 10 uM pre-incubated for 0 mins before RCC1 substrate addition and measured after 15 mins by Western blot analysis relative to control. Background: A western blot detects proteins with antibodies after separation by electrophoresis.

Assay [3] in a line: Inhibition of recombinant human full-length His6-tagged NTMT1 (1 to 222 residues) expressed in Escherichia coli BL21-CodonPlus(DE3)-RIL competent cells assessed as Me3RCC1 level at 50 uM pre-incubated for 10 mins before RCC1 substrate addition and measured after 15 mins by Western blot analysis relative to control.
Assay [4] in a line: Inhibition of recombinant human full-length His6-tagged NTMT1 (1 to 222 residues) expressed in Escherichia coli BL21-CodonPlus(DE3)-RIL competent cells assessed as Me3RCC1 level at 2 uM pre-incubated for 10 mins before RCC1 substrate addition and measured after 15 mins by Western blot analysis relative to control.
A short description of assay [5]: Inhibition of recombinant human full-length His6-tagged NTMT1 (1 to 222 residues) expressed in Escherichia coli BL21-CodonPlus(DE3)-RIL competent cells assessed as Me2RCC1 level at 10 uM pre-incubated for 10 mins before RCC1 substrate addition and measured after 15 mins by Western blot analysis relative to control.

Where a SMILES comes first, the peptide text is derived from it. The star is where a group is joined. X1 = O=C(Cc1ccc(O)cc1)*

Broadly, the IC50 is the concentration needed to halve the response being measured.

On to `N=C(N)NCCC[C@H](NC(=O)[C@H](CCCCN)NC(=O)[C@@H]1CCCN1C(=O)Cc1ccc(O)cc1)C(N)=O`, for which the figures for the IC50 in assay [1], in assay [2] and in assay [3] were 100 nM, 1000 nM and 100 nM, respectively.

On to `N=C(N)NCCC[C@H](NC(=O)[C@H](CCCNC(=N)N)NC(=O)[C@H](CCCNC(=N)N)NC(=O)[C@H](CCC(N)=O)NC(=O)[C@H](CCCNC(=N)N)NC(=O)[C@H](CCCNC(=N)N)NC(=O)[C@H](CCCCN)NC(=O)[C@H](CCCCN)NC(=O)[C@H](CCCNC(=N)N)NC(=O)CNC(=O)[C@H](CCCNC(=N)N)NC(=O)[C@H](CCCCN)NC(=O)[C@@H]1CCCN1C(=O)Cc1ccc(O)cc1)C(N)=O`, for which the concentration for half-maximal inhibition (IC50) in assay [4] came out at 1000 nM; in assay [2], 700 nM; in assay [5] it was 1000 nM; in assay [3] it was 200 nM.

For the compound `N=C(N)NCCC[C@H](NC(=O)[C@H](CCCNC(=N)N)NC(=O)[C@H](CCCNC(=N)N)NC(=O)[C@H](CCCNC(=N)N)NC(=O)[C@H](CCCNC(=N)N)NC(=O)[C@H](CCCNC(=N)N)NC(=O)[C@H](CCCCN)NC(=O)[C@@H]1CCCN1C(=O)Cc1ccc(O)cc1)C(N)=O` (X1-PKRRRRRR-NH2), the half-inhibitory concentration (IC50) stood at 800 nM in assay [4]; 100 nM in assay [1]; 900 nM in assay [2]; 1000 nM in assay [5]; 100 nM in assay [3].
